Measurements published in PubChem BioAssay (NCI).
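Five concentrations, 48 hours, 96-well plates. Definition used: TGI = concentration required for complete inhibition of growth.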

Columns and labels:
Experiment in all cases: NCI anticancer screen, dose series, 48 h
786-0 renal = system: 786-0 renal
A549 NSCLC = system: A549 NSCLC
ACHN renal = system: ACHN renal
BT-549 breast = system: BT-549 breast
CAKI-1 renal = system: CAKI-1 renal
CCRF-CEM leukemia = system: CCRF-CEM leukemia
COLO 205 colon = system: COLO 205 colon
DU-145 prostate = system: DU-145 prostate
EKVX NSCLC = system: EKVX NSCLC
HCC-2998 colon = system: HCC-2998 colon
HCT-116 colon = system: HCT-116 colon
HCT-15 colon = system: HCT-15 colon
HL-60(TB) leukemia = system: HL-60(TB) leukemia
HOP-62 NSCLC = system: HOP-62 NSCLC
HOP-92 NSCLC = system: HOP-92 NSCLC
HS 578T breast = system: HS 578T breast
HT29 colon = system: HT29 colon
IGROV1 ovarian = system: IGROV1 ovarian
K-562 leukemia = system: K-562 leukemia
KM12 colon = system: KM12 colon
LOX IMVI melanoma = system: LOX IMVI melanoma
M14 melanoma = system: M14 melanoma
MALME-3M melanoma = system: MALME-3M melanoma
MCF7 breast = system: MCF7 breast
MDA-MB-231 breast = system: MDA-MB-231 breast
MDA-MB-435 = system: MDA-MB-435
MDA-N = system: MDA-N
MOLT-4 leukemia = system: MOLT-4 leukemia
NCI-H226 lung = system: NCI-H226 lung
NCI-H23 lung = system: NCI-H23 lung
NCI-H522 lung = system: NCI-H522 lung
OVCAR-3 ovarian = system: OVCAR-3 ovarian
OVCAR-4 ovarian = system: OVCAR-4 ovarian
OVCAR-5 ovarian = system: OVCAR-5 ovarian
OVCAR-8 ovarian = system: OVCAR-8 ovarian
PC-3 prostate = system: PC-3 prostate
RPMI-8226 leukemia = system: RPMI-8226 leukemia
RXF 393 renal = system: RXF 393 renal
SF-268 CNS = system: SF-268 CNS
SF-295 CNS = system: SF-295 CNS
SF-539 CNS = system: SF-539 CNS
SK-MEL-2 melanoma = system: SK-MEL-2 melanoma
SK-MEL-28 melanoma = system: SK-MEL-28 melanoma
SK-MEL-5 melanoma = system: SK-MEL-5 melanoma
SN12C renal = system: SN12C renal
SNB-19 CNS = system: SNB-19 CNS
SNB-75 CNS = system: SNB-75 CNS
SR leukemia = system: SR leukemia
SW-620 colon = system: SW-620 colon
TK-10 renal = system: TK-10 renal
U251 CNS = system: U251 CNS
UACC-257 melanoma = system: UACC-257 melanoma
UO-31 renal = system: UO-31 renal

Measured: TGI

CC(=O)OCCOCn1c2c(c(=O)[nH]c1=O)CCC2
> 100 µM: 786-0 renal | A549 NSCLC | ACHN renal | BT-549 breast | CAKI-1 renal | CCRF-CEM leukemia | COLO 205 colon | DU-145 prostate | EKVX NSCLC | HCC-2998 colon | HCT-116 colon | HCT-15 colon | HL-60(TB) leukemia | HOP-62 NSCLC | HOP-92 NSCLC | HS 578T breast | HT29 colon | IGROV1 ovarian | K-562 leukemia | KM12 colon | LOX IMVI melanoma | M14 melanoma | MALME-3M melanoma | MCF7 breast | MDA-MB-231 breast | MDA-MB-435 | MDA-N | MOLT-4 leukemia | NCI-H226 lung | NCI-H23 lung | NCI-H522 lung | OVCAR-3 ovarian | OVCAR-4 ovarian | OVCAR-5 ovarian | OVCAR-8 ovarian | PC-3 prostate | RPMI-8226 leukemia | RXF 393 renal | SF-268 CNS | SF-295 CNS | SF-539 CNS | SK-MEL-2 melanoma | SK-MEL-28 melanoma | SK-MEL-5 melanoma | SN12C renal | SNB-19 CNS | SNB-75 CNS | SR leukemia | SW-620 colon | TK-10 renal | U251 CNS | UACC-257 melanoma | UO-31 renal
